Test results reported in US9636374B2, “pH-sensitive polymer-drug conjugates for targeted delivery of therapeutics” (priority 2011, dated 2017).
“Also recorded” adds a separate entry of the source.

Legend:
[1] = tested on: MDA-MB-231, MCF-10A-H-RasV12 and MCF-10A-Vector cells; assay: Biotin-mediated cell uptake of PEG-FITC (fluorescence microscopy); type: cell-based, human; conditions: 15 minute-treatment; for cellular uptake: 1 μM, cancer and noncancerous cells
[2] = H1-NMR analysis of pH-dependent dissociation of bortezomib-catechol conjugates; type: physicochemical; conditions: as the pH decreased from 7.4 to 5.5; 1 mM in deuterated phosphate buffer
Method: First, the pH-dependent reversible binding between BTZ and catechol-containing polymers was characterized using H^1-NMR spectroscopy (FIG. 3A). At pH 5.5, mixing BTZ and catechol-containing dopamine (DA) gave a spectrum similar to that of the two individual compounds superimposed on each other, indicating the presence of un-complexed BTZ and DA.
H^1-NMR analysis of pH-dependent dissociation of bortezomib-catechol conjugates. Bortezomib and dopamine hydrogen chloride were dissolved separately in d6-DMSO 0.2 M concentration. The two solutions were mixed to give a stock solution of DA-BTZ conjugate at 0.1 M in DMSO. A solution of 0.1 M monosodium phosphate in D2O was used to dilute the DA-BTZ stock to 1 mM, and pH of such solutions were adjusted with 4N NaOH in D2O to 5.5, 6.5, 7.4 and 8.5. These solutions were analyzed on AVANCE III 500 MHz (FIG. 6) and peak integrals in the range of 7.2 to 5.5 ppm were used for quantifying the degree of dissociation of DA-BTZ presented in FIG. 3B.

[3] = 3-component inhibition fluorescence assay (ARS-bortezomib competition); type: physicochemical; conditions: from pH 7.4 to pH 5.5
Method: 3-component inhibition fluorescence assay. The fluorescence assay for characterizing pH-sensitive binding between bortezomib and catechol was carried out using procedures modified from the aforementioned literature method. Briefly, a solution of 0.1 mM ARS was prepared in 0.1 M phosphate monosodium buffer (solution A). Bortezomib was dissolved in solution A to achieve final concentration of 1 mM (solution B). The pH of both solution A and solution B was adjusted to 5.5, 6.5 and 7.4 using a 4N NaOH aqueous solution. Solution B was titrated to solution A to make a series of solutions that contain constant concentration of ARS (0.1 mM) and varying concentration of bortezomib (0˜1 mM) at defined pH. After mixing the two solutions, the final solution stood for 5 minutes before fluorescence measurement at excitation 495 nm, emission 565 nm on SpectraMax M5 (Molecular Devices, Sunnyvale, Calif.). This procedure was used to probe the pH-dependence of ARS-BTZ binding (FIG. 6). The binding capacity of catechol for bortezomib was characterized based on the inhibition of catechol on ARS-bortezomib binding, resulting in a decrease in fluorescence intensity. […] Fluorescence intensity of each solution was measured to plot the binding inhibition curves in FIG. 7. […] Fmax refers to the fluorescence intensity of ARS-BTZ conjugate in solution C at a defined pH. […]

PEG-FITC
cellular uptake [1]: little; also recorded: minimal

CC(C)CC(NC(=O)C(Cc1ccccc1)NC(=O)c1cnccn1)B1Oc2ccc(CCN)cc2O1 (centres unmarked) [BTZ-catechol conjugate]
increase in dissociation of the BTZ-catechol conjugate [2]: 50%

biotin-PEG-FITC
cellular uptake [1]: showed uptake; also recorded: rapidly taken up

O=C(O)CCCC[C@@H]1SC[C@@H]2NC(=O)N[C@@H]21 [biotin, reference compound]
inhibition of cellular uptake of biotin-PEG-FITC ([1]; free biotin in buffer): Dose-dependent inhibition

PEG-catechol
decrease in binding affinity for BTZ [3]: about 60%
